Measurements as given in the supplement of paper PMC8671470.

Tests used:
Conditions in all cases: 72 h
HL-60 [1] = test: cell viability (% survival relative to DMSO control); higher = less cytotoxic
Procedure, shortened: (§1)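 In 384-well plates, the full library was rescreened in duplicate on HL-60 cells in RPMI 1640 with 10% FBS, at 1–10,000 nM in five tenfold concentrations, for 72 h at 37 °C, 5% CO2. Each run also held DMSO or 100 nM of one of three metabolic inhibitors. Viability was measured by CellTiter-Glo and normalised to DMSO wells and to wells with proteasome inhibitor, present at 10 μM. Any area under the curve comes from four-parameter log-logistic fitting with drc and PharmacoGx.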

HL-60 [2] = test: area under dose-response curve (viability, 1 nM-10 uM) (fraction (0-1)); higher = more sensitive
Procedure, shortened: as §1

[3] = test system: myeloid leukemia patient primary cells Pat.10; test: cell viability (% survival relative to DMSO control); higher = less cytotoxic
Procedure, shortened: (§2)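 Mononuclear cells from patients with AML or CML were thawed, purified on Ficoll and placed in RPMI 1640 with 10% FBS at 10,000 cells/well on 384-well plates. The plates came pre-printed with 70 compounds at five tenfold concentrations spanning 1–10,000 nM, in duplicate, and cells were exposed for 72 h. CellTiter-Glo gave viability, scaled between DMSO wells and wells with 10 μM proteasome inhibitor. Where reported, area under the curve was obtained from log-logistic fits with four parameters using the drc and PharmacoGx R packages.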

[4] = test system: myeloid leukemia patient primary cells Pat.11; test: as above
Procedure, shortened: as §2

[5] = test system: myeloid leukemia patient primary cells Pat.12; test: as above
Procedure, shortened: as §2

[6] = test system: myeloid leukemia patient primary cells Pat.13; test: as above
Procedure, shortened: as §2

[7] = test system: myeloid leukemia patient primary cells Pat.14; test: as above
Procedure, shortened: as §2

[8] = test system: myeloid leukemia patient primary cells Pat.15; test: as above
Procedure, shortened: as §2

[9] = test system: myeloid leukemia patient primary cells Pat.1; test: as above
Procedure, shortened: as §2

[10] = test system: myeloid leukemia patient primary cells Pat.2; test: as above
Procedure, shortened: as §2

[11] = test system: myeloid leukemia patient primary cells Pat.3; test: as above
Procedure, shortened: as §2

[12] = test system: myeloid leukemia patient primary cells Pat.4; test: as above
Procedure, shortened: as §2

[13] = test system: myeloid leukemia patient primary cells Pat.5; test: as above
Procedure, shortened: as §2

[14] = test system: myeloid leukemia patient primary cells Pat.6; test: as above
Procedure, shortened: as §2

[15] = test system: myeloid leukemia patient primary cells Pat.7; test: as above
Procedure, shortened: as §2

[16] = test system: myeloid leukemia patient primary cells Pat.8; test: as above
Procedure, shortened: as §2

[17] = test system: myeloid leukemia patient primary cells Pat.9; test: as above
Procedure, shortened: as §2

[18] = test system: myeloid leukemia patient primary cells Pat.10; test: area under dose-response curve (viability, 1 nM-10 uM) (fraction (0-1)); higher = more sensitive
Procedure: (§3)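 AUC (0–1, higher = more sensitive) of the 5-point dose–response (1 nM–10 µM, 72 h, CellTiter-Glo) in primary AML/CML patient mononuclear cells. 0.030103 is the floor for inactive compounds.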

[19] = test system: myeloid leukemia patient primary cells Pat.11; test: as above
Procedure: as §3

[20] = test system: myeloid leukemia patient primary cells Pat.12; test: as above
Procedure: as §3

[21] = test system: myeloid leukemia patient primary cells Pat.13; test: as above
Procedure: as §3

[22] = test system: myeloid leukemia patient primary cells Pat.14; test: as above
Procedure: as §3

[23] = test system: myeloid leukemia patient primary cells Pat.15; test: as above
Procedure: as §3

[24] = test system: myeloid leukemia patient primary cells Pat.1; test: as above
Procedure: as §3

[25] = test system: myeloid leukemia patient primary cells Pat.2; test: as above
Procedure: as §3

[26] = test system: myeloid leukemia patient primary cells Pat.3; test: as above
Procedure: as §3

[27] = test system: myeloid leukemia patient primary cells Pat.4; test: as above
Procedure: as §3

[28] = test system: myeloid leukemia patient primary cells Pat.5; test: as above
Procedure: as §3

[29] = test system: myeloid leukemia patient primary cells Pat.6; test: as above
Procedure: as §3

[30] = test system: myeloid leukemia patient primary cells Pat.7; test: as above
Procedure: as §3

[31] = test system: myeloid leukemia patient primary cells Pat.8; test: as above
Procedure: as §3

[32] = test system: myeloid leukemia patient primary cells Pat.9; test: as above
Procedure: as §3

Cn1cc(-c2ccncc2)c(-c2ccc(OCc3ccc4ccccc4n3)cc2)n1
cell viability [%], HL-60 [1]
Conditions	0.001 µM	0.01 µM	0.1 µM	1 µM	10 µM
co-treatment: AZD3965 100 nM	94.1	101	101	96.7	103
co-treatment: DMSO vehicle	99.1	94.8	102	98.248	101
co-treatment: GSK2194069 100 nM	103	101	107	90.9	81.8
co-treatment: pictilisib 100 nM	98.7	101	114	94.4	107

HL-60 [2]
Conditions	area under dose-response curve
co-treatment: AZD3965 100 nM	< 0.0301
co-treatment: DMSO vehicle	< 0.0301
co-treatment: GSK2194069 100 nM	0.05
co-treatment: pictilisib 100 nM	0.05

O=C(O)C(=S)Cc1c[nH]c2ccc(F)cc12
cell viability [%], HL-60 [1]
Conditions	0.001 µM	0.01 µM	0.1 µM	1 µM	10 µM
co-treatment: AZD3965 100 nM	94	98.2	106	103	101.9
co-treatment: DMSO vehicle	99.1	101	106	102	104
co-treatment: GSK2194069 100 nM	90.8	101	103	104	104
co-treatment: pictilisib 100 nM	91.7	99.9	101.8	101	97.2

HL-60 [2]
Conditions	area under dose-response curve
co-treatment: AZD3965 100 nM	< 0.0301
co-treatment: DMSO vehicle	< 0.0301
co-treatment: GSK2194069 100 nM	< 0.0301
co-treatment: pictilisib 100 nM	< 0.0301

CN(C)C(=O)n1nnnc1Cc1ccc(-c2ccccc2)cc1
cell viability [%]
Conditions	1 nM	10 nM	100 nM	1000 nM	10000 nM
[3]	96.5	75.2	> 100	20.7	15.5
[4]	> 100	87.4	91.7	93.6	22
[5]	94.7	91.7	90.7	93	41.2
[6]	84.1	60.2	92.1	87.3	7.43
[7]	97.8	63.7	95.5	32	0.671
[8]	94.8	96	96.2	89.5	29.8
[9]	98.5	74.4	89.4	87.9	4.27
[10]	97.7	78.6	> 100	99.1	37.3
[11]	> 100	64.8	82.7	30.3	2.63
[12]	97.2	81	84.8	> 100	2.63
[13]	60.8	1.18	63	1.33	2.24
[14]	> 100	70.8	97.7	> 100	21.8
[15]	> 100	38.7	73.7	24.8	13.2
[16]	99.4	97.5	71.9	85.5	4.49
[17]	64	5.6	60.2	9.03	0.492

Conditions	area under dose-response curve
[18]	0.298
[19]	0.0778
[20]	0.044
[21]	0.105
[22]	0.277
[23]	0.0943
[24]	0.124
[25]	0.0497
[26]	0.278
[27]	0.115
[28]	0.798
[29]	0.0748
[30]	0.331
[31]	0.132
[32]	0.766
